In patent publication US6884577B2, “Methods for screening compounds for estrogenic activity” (The Regents of the University of California, priority 1993, dated 2005):

What was measured:
[1] = test system: human ER at the AP-1 site of the collagenase promoter (coll73); assay: Coll73-LUC luciferase reporter (collagenase promoter with AP-1 site) in cells transfected with human ER expression vector HEO; type: cell-based; settings: relative to no ER
Method: All reporter genes described below have been modified by digestion with EcoR I and Ndel to remove a AP-I site in the backbone of pUG. […] Coll73-LUC was constructed by cloning a BamHI/Pvull fragment, that spanned the luciferase transcription unit, from pMG3 into coll73, which had been digested with BamHI and SmaI to remove the CAT transcription unit.
Cells were maintained and transfected as previously described in Webb et al., supra. […] F9 cells were seeded at 30% confluence upon 1.5 cm dishes and transfected overnight by calcium phosphate coprecipitation with 5 μg reporter gene, 1 μg actin β-HCG, and 1 μg of HEO, 300 ng each of c-jun and c-fos expression vectors. The cells were glycerol shocked and refed in growth medium containing hormone or ethanolic vehicle.
CAT assays were carried out as described in Webb et al., except that the cells were harvested one to two days after transfection instead of three. CAT activities were defined as the increase in cpm per hour at room temperature (corrected for background) per 100 μl of cell extract, normalized to production of 100 standard units of βHCG, from a co-transfected reporter gene, actin-HCG. […] Light units were defined as the luciferase activity per 100 μl of cell extract per 100 standard units of βHCG. Relative luciferase activities were calculated with respect to the results that were obtained in the absence of ER and hormone, which was set at 1 unit. For the data presented in Table I triplicate points were determined.
In each case, the cells were transfected with different amounts of the human ER expression vector HEO to determine the optimal response.

[2] = test system: ER at the AP-1 site of the collagenase promoter; assay: Collagenase promoter reporter in cells that express endogenous ER (Ishikawa, MCF-7, ZR-75-1); type: cell-based
Method: Left panel, coll73-CAT response with endogenous ER contrasted with the response of an ERE regulated reporter, ERE-coll60CAT. Right panel, coll73-LUC response with 3 μg co-transfected expression vector for human ER. Averages of three individual experiments are shown. […] A single representative experiment with triplicate hormone treatments is shown.
(§1) To further explore this phenomenon, and to test whether similar hormone effects could be detected at physiological levels of ER, the expression of the collagenase promoter in cells that express endogenous ER was examined.

[3] = test system: ER at classical ERE, Ishikawa cells; assay: ERE-coll60CAT reporter in Ishikawa cells; type: cell-based
Text: Left panel, coll73-CAT response with endogenous ER contrasted with the response of an ERE regulated reporter, ERE-coll60CAT. […] Averages of three individual experiments are shown. […] A single representative experiment with triplicate hormone treatments is shown.
as §1

MCF-7 cell = settings: Braacke et al. 1991; cited from earlier work

## C[C@]12CC[C@@H]3c4ccc(O)cc4CC[C@H]3[C@@H]1CC[C@@H]2O [estradiol, 17β-estradiol]
[1]; CEF (fibroblast), no hormone, saturating hormone
  Coll73 Luciferase Activity: 2.5
[1]; CHO (ovary), no hormone, saturating hormone
  Coll73 Luciferase Activity: 3.3
[1]; CV-1 (kidney), no hormone, saturating hormone
  Coll73 Luciferase Activity: 2.2
[1]; F9 (teratocarcinoma), no hormone, unliganded ER gave 3.2
  Coll73 Luciferase Activity: 1.4
[1]; HELA (cervix), no hormone = 1, ICI 1 μM, tamoxifen 5 μM, estradiol 100 nM
  Coll73 Luciferase Activity: 3.4
[1]; HEP G2 (liver), no hormone, saturating hormone
  Coll73 Luciferase Activity: 4.3
[1]; MDA453 (breast), no hormone, saturating hormone
  Coll73 Luciferase Activity: 8.4
[1]; NIH 3T3 (fibroblast), no hormone, saturating hormone
  Coll73 Luciferase Activity: 3.3
[1]; SHM (myometrium), no hormone, saturating hormone
  Coll73 Luciferase Activity: 2.0
[1]; SY5Y (neuroblastoma), no hormone, saturating hormone
  Coll73 Luciferase Activity: 2.1
[2]; Ishikawa cells, endogenous receptor, FIG. 4A
  activation of the collagenase promoter (coll73-CAT): activated
[2]; Ishikawa cells, receptor levels raised by transfection
  induction of the collagenase promoter (coll73-LUC): inductions became larger
[2]; MCF-7 cells, endogenous ER, FIG. 4B
  activation of the collagenase promoter: activated
[2]; ZR-75-1 cells
  activation of the collagenase promoter: The same pattern occurred
[3]
  expression of ERE-coll60: tenfold
MCF-7 cell
  MCF-7 cell invasion activity of a re-constituted basement membrane: stimulated
